Laboratory results published in the SangsterLogP compilation.

Test: method code SF, from PMID: 10544519

| logP | Structure (SMILES) |
| --- | --- |
| 1.46 | COC(=O)Cn1c(C)nc2ccccc2c1=O |
| 0.64 | Cc1nc2ccccc2c(=O)n1CCC(=O)O |
| 0.08 | Cc1nc2ccccc2c(=O)n1CC(=O)O |

Test: not given

| Structure (SMILES) | logP |
| --- | --- |
| CCOc1ccc(NC(=O)Cn2c(C)nc3ccccc3c2=O)cc1 | 2.19 |
| Cc1nc2ccccc2c(=O)n1CC(=O)Nc1ccc(S(=O)(=O)NC(=N)N)cc1 | 0.09 |
| Cc1nc2ccccc2c(=O)n1CC(=O)NNc1ccccc1 | 1.34 |
| COC(=O)c1cc(NC(=O)Cn2c(C)nc3ccccc3c2=O)cc(C(=O)OC)c1 | 2.98 |
| Cc1nc2ccccc2c(=O)n1CC(=O)Nc1c(C)n(C)n(-c2ccccc2)c1=O | 1.07 |
| Cc1cc(C)nc(NS(=O)(=O)c2ccc(NC(=O)Cn3c(C)nc4ccccc4c3=O)cc2)n1 | 0.7 |
| Cc1nc2ccccc2c(=O)n1CC(=O)NCc1ccccc1 | 1.78 |
| COC(=O)c1ccc(C(=O)OC)c(NC(=O)Cn2c(C)nc3ccccc3c2=O)c1 | 3.53 |
| CCOC(=O)c1nc2ccccc2c(=O)[nH]1 | 0.64 |

Second part, the compound after the results:

| logP | Structure (SMILES) |
| --- | --- |
| 0.44 | COC(=O)CNC(=O)Cn1c(C)nc2ccccc2c1=O |
| 1.24 | Cc1nc2ccccc2c(=O)n1CC(=O)NCc1ccco1 |
| 0.45 | Cc1nc2ccccc2c(=O)n1CC(=O)N1CCOCC1 |
| 1.42 | Cc1nc2ccccc2c(=O)n1CC(=O)N1CCCCC1 |
| 1.14 | CCN(CC)C(=O)Cn1c(C)nc2ccccc2c1=O |
